Data on twelve compounds can be found in PubChem BioAssay (NCI).

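Dose response: 5 concentrations. Exposure: 48 h. Format: 96-well plates. Endpoint: linear interpolation; highest concentration if not reached. The concentration for 50% growth inhibition is given as GI50. TGI: total growth inhibition.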

Test systems include A549 NSCLC; HL-60(TB) leukemia; HT29 colon; BT-549 breast; KM12 colon; UACC-257 melanoma; NCI/ADR-RES ovarian.
What all share (assay): inhibition of tumour cell growth, NCI panel, 48 h

For the compound `N#C/C(=C/N1CCN(C(=O)c2ccco2)C1=S)C(=O)c1ccccc1`, the GI50 in the test on A549 NSCLC was 22 µM; with HL-60(TB) leukemia it was 31.5 µM; in the test with HT29 colon, 30.5 µM; in the test with BT-549 breast it was 7.77 µM; in the test on KM12 colon, 6.49 µM. In addition, the TGI with A549 NSCLC is 58.4 µM; with HL-60(TB) leukemia it was 91.5 µM; with HT29 colon, more than 100 µM; in the test on BT-549 breast, 32.3 µM; in the test with KM12 colon it was more than 100 µM.
Take `Cc1c(C2=C(Br)C(=O)N(C)C2=O)c(=O)n(C)c(=O)n1C`: the TGI is 32 µM in the test on UACC-257 melanoma; more than 100 µM in the test with A549 NSCLC; 41 µM with HL-60(TB) leukemia; 42.2 µM in the test on HT29 colon; 74.1 µM in the test on NCI/ADR-RES ovarian; 51.1 µM in the test with BT-549 breast. The same compound gave a TGI with KM12 colon of more than 100 µM.
As to `O=C(COc1ccc(/C=C2\CSc3ccccc3C2=O)cc1)Nc1nccs1`, the GI50 in the test on UACC-257 melanoma is 12.6 µM; with A549 NSCLC, 15.3 µM; in the test on HT29 colon it was 4.48 µM; in the test on NCI/ADR-RES ovarian it was 21.4 µM; with KM12 colon, 2.96 µM. The TGI stood at 25.1 µM with UACC-257 melanoma; 28.5 µM in the test with A549 NSCLC; 16.2 µM in the test with HT29 colon; 66.5 µM in the test on NCI/ADR-RES ovarian; 8.99 µM in the test on KM12 colon.
On to `N#CC(=NCCO)C1=C(O)c2ccccc2C1=O`, for which the TGI in the test with UACC-257 melanoma, with A549 NSCLC, in the test on HL-60(TB) leukemia, in the test with HT29 colon, in the test with NCI/ADR-RES ovarian and with BT-549 breast was more than 100 µM throughout. Besides, the TGI in the test with KM12 colon was more than 100 µM.
For the compound `COc1ccc(C(=O)COc2cccc(/C=C3\Oc4ccc5ccccc5c4C3=O)c2)cc1`, the GI50 is 14.5 µM in the test on UACC-257 melanoma; 21.1 µM with A549 NSCLC; 3.19 µM in the test on HL-60(TB) leukemia; 6.92 µM in the test with HT29 colon; 16.7 µM with NCI/ADR-RES ovarian; 2.45 µM in the test with BT-549 breast. In addition, the GI50 in the test with KM12 colon was 3.39 µM. For the same compound, the TGI in the test on UACC-257 melanoma stood at 32.4 µM; in the test on A549 NSCLC it was 52.5 µM; in the test with HL-60(TB) leukemia, 18.7 µM; in the test with HT29 colon, 44.6 µM; in the test on NCI/ADR-RES ovarian, 33.2 µM; in the test on BT-549 breast, 10.3 µM. In addition, the TGI with KM12 colon is 14.6 µM.
`Cc1cc(S(=O)(=O)N/N=C(\Sc2cc(Cl)c(C)cc2S(N)(=O)=O)c2ccc(Cl)cc2)c(Cl)cc1Cl`: the GI50 was 44.5 µM in the test on UACC-257 melanoma; 36.6 µM with A549 NSCLC; 76.4 µM in the test on HL-60(TB) leukemia; more than 100 µM in the test on NCI/ADR-RES ovarian; 61.8 µM with BT-549 breast; more than 100 µM in the test on KM12 colon. The TGI in the test on UACC-257 melanoma, in the test with A549 NSCLC, in the test on HL-60(TB) leukemia, in the test with NCI/ADR-RES ovarian, in the test with BT-549 breast and in the test with KM12 colon was more than 100 µM in each case.
For `COc1cc2c3c(n(CCCN(C)C)c(=O)c2cc1OC)-c1ccccc1C3=O`, the GI50 is more than 100 µM in the test on UACC-257 melanoma; 10.3 µM with A549 NSCLC; 0.738 µM in the test with HT29 colon; 5.94 µM in the test on NCI/ADR-RES ovarian; 21.4 µM in the test on BT-549 breast; 5.61 µM with KM12 colon. The TGI in the test with UACC-257 melanoma is more than 100 µM; in the test with A549 NSCLC it was more than 54.6 µM; in the test with HT29 colon, 16.6 µM; in the test on NCI/ADR-RES ovarian it was more than 49.1 µM; in the test on BT-549 breast it was more than 100 µM; in the test with KM12 colon it was 41.9 µM.
For the compound `CC(C)S(=O)(=O)c1ccccc1Nc1nc(Nc2cccc(NC(=O)CN)c2)ncc1Cl`, the GI50 with UACC-257 melanoma is 0.997 µM; in the test with A549 NSCLC, 0.147 µM; in the test on HL-60(TB) leukemia, 0.103 µM; in the test with HT29 colon it was 0.183 µM; in the test on NCI/ADR-RES ovarian it was 0.482 µM; in the test on BT-549 breast, 0.149 µM. Also, in the test on KM12 colon, the GI50 is 0.0331 µM. The TGI in the test on UACC-257 melanoma stood at 6.73 µM; in the test with A549 NSCLC it was 9.03 µM; in the test on HL-60(TB) leukemia, 0.55 µM; in the test with HT29 colon, 2.83 µM; in the test with NCI/ADR-RES ovarian it was 3.6 µM; in the test on BT-549 breast, 1 µM. The TGI with KM12 colon worked out at 2.45 µM.
Take `CCc1ccccc1NC(=O)c1sc2nc3c(cc2c1N)C(=O)CCC3`: the GI50 with UACC-257 melanoma is 27.6 µM; in the test with A549 NSCLC, 0.656 µM; with HL-60(TB) leukemia, 0.326 µM; in the test on HT29 colon it was 0.372 µM; in the test with NCI/ADR-RES ovarian it was 0.433 µM; in the test on BT-549 breast, 27.4 µM. In addition, in the test on KM12 colon, the GI50 was 0.432 µM. In addition, the TGI in the test with UACC-257 melanoma was more than 100 µM; in the test with A549 NSCLC, more than 100 µM; in the test on HL-60(TB) leukemia, 43.7 µM; in the test with HT29 colon, 29.5 µM; in the test on NCI/ADR-RES ovarian, 41.1 µM; in the test on BT-549 breast it was more than 100 µM. The compound further registered a TGI in the test with KM12 colon of more than 100 µM.
Regarding `O=C(/C=C/c1cc(CN2CCOCC2)c(O)c2ncccc12)c1cc(CN2CCOCC2)c(O)c2ncccc12`, the GI50 in the test with UACC-257 melanoma is 0.202 µM; in the test with A549 NSCLC it was 0.0285 µM; with HL-60(TB) leukemia, 0.0309 µM; in the test with HT29 colon it was 0.0695 µM; in the test on NCI/ADR-RES ovarian, 0.091 µM; in the test on BT-549 breast it was 0.0287 µM. In addition, the GI50 with KM12 colon was 0.0437 µM. Further, the TGI was 8.88 µM in the test on UACC-257 melanoma; more than 100 µM in the test with A549 NSCLC; more than 100 µM with HT29 colon; more than 100 µM with NCI/ADR-RES ovarian; 16.9 µM with BT-549 breast; more than 100 µM in the test on KM12 colon.
Consider `O=C(Nc1ccc(-n2cc(-c3ccncc3)c(-c3ccc(Cl)c(O)c3)n2)cc1)Nc1ccc(Cl)c(C(F)(F)F)c1`, for which the GI50 with UACC-257 melanoma is 1.51 µM; in the test with A549 NSCLC, 2.21 µM; with HL-60(TB) leukemia it was 2.42 µM; in the test with NCI/ADR-RES ovarian, 1.88 µM; in the test with BT-549 breast, 1.2 µM; in the test with KM12 colon, 1.47 µM. The TGI was 3.4 µM with UACC-257 melanoma; 5.96 µM in the test with A549 NSCLC; 7.46 µM in the test with HL-60(TB) leukemia; 4.83 µM in the test with NCI/ADR-RES ovarian; 2.79 µM in the test with BT-549 breast; 3.01 µM in the test on KM12 colon.
On to `C[C@]12CC[C@@H]3c4ccc(O)cc4CC[C@H]3[C@@H]1CC[C@@H]2NS(=O)(=O)c1cccc(F)c1`, for which the GI50 with UACC-257 melanoma was 4.07 µM; in the test with A549 NSCLC, 3.13 µM; in the test on HT29 colon, 3.2 µM; in the test with NCI/ADR-RES ovarian, 2.88 µM; in the test on BT-549 breast, 2.82 µM; in the test with KM12 colon it was 2.34 µM. Besides, the TGI in the test with UACC-257 melanoma was found to be 16.3 µM; in the test on A549 NSCLC, 12.6 µM; in the test on HT29 colon it was 10.1 µM; with NCI/ADR-RES ovarian, 17 µM; with BT-549 breast, 8.46 µM; with KM12 colon, 6.31 µM.
